Patent US20090299049A1, “Bicyclic Compounds and Their Use” (priority 2006, published 2009)

Legend:
[1] = UV absorbance and fluorescence of ribonucleoside analogues in DMSO (molar extinction coefficient, quantum yield); format: physicochemical; settings: for Quantum yield: relative to quinine sulphate and anthracene standards
Source text: UV absorbance and fluorescence excitation and emission data were used to determine the molar extinction coefficient and fluorescence quantum yield of a several adenosine and guanosine ribonucleoside analogues in DMSO (see the Table below). The data acquired support the concept that the fluorescence properties of these analogues can be tuned by altering the electron-donating or electron-withdrawing R-group on the terminal phenylalkyne. Fourteen electron-donating or electron-withdrawing R-groups were coupled to purine bases at the 8-position. […] This makes the analogues extremely useful for the quantification of analogue-containing nucleic acid products in a DNA or RNA background. […] The position (ortho, meta or para) of the R-group on the phenyl ring can also be used to tune the fluorescent properties of the analogues. The ring position of the R-group has a smaller effect on the fluorescent properties of the analogues. Greater changes in the excitation/emission wavelength, molar extinction coefficient and quantum yield can be induced by changing the type of R-group (electron-donating vs. electron-withdrawing) as compared to the position of a R-group on the phenyl ring (ortho, meta or para). The quantum yields of the unphosphorylated analogues were measured relative to quinine sulphate and anthracene standards. […] This provides additional support for the idea that the purine bases can both push and pull electrons in π-conjugated systems.

[2] = Optical properties: UV-visible spectra, fluorescence excitation and emission; format: physicochemical; settings: for Stokes shift: (1/λex − 1 λem); for λem: fluorescence emission wavelength; for λex: fluorescence excitation wavelength
Source text: The optical properties of several novel chromophores were investigated. UV-visible spectra reveal an intense absorption in the UV region for all the compounds evaluated.

T7 RNA polymerase = T7 RNA polymerase (Escherichia phage T7, UniProt P00573); experiment: Gel-based in vitro transcription assay with the ATP analogue as substrate; format: biochemical, bacteriophage T7; settings: for Length of RNA products observed: Mg^2+ co-factor, analogue in place of ATP
Sequence of T7 RNA polymerase (P00573 whole entry): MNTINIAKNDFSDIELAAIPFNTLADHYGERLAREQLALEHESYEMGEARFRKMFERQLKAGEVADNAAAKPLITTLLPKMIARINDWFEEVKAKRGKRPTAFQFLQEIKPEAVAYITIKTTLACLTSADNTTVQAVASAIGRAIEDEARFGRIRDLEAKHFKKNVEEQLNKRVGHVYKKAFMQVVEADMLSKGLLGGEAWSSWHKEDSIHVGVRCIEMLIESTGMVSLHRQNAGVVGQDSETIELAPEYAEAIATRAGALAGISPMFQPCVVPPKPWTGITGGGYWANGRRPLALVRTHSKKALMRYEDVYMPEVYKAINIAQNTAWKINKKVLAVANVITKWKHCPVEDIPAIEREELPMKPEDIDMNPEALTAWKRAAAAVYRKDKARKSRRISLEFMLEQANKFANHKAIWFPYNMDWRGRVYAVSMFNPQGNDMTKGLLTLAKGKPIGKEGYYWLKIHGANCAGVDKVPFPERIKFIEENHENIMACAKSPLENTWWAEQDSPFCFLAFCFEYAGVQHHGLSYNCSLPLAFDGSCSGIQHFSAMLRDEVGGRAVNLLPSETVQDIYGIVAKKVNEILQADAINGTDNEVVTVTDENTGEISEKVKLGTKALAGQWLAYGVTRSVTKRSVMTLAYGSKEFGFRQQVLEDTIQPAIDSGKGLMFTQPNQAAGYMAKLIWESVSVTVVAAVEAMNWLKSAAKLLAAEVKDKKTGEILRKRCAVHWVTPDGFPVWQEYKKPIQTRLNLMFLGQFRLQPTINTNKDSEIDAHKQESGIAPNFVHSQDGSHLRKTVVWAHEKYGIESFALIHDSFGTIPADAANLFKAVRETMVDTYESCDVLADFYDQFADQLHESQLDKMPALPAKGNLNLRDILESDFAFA
Source text: (§1) In vitro assays of hepatitis C virus (HCV) and bacteriophage T7 RNA polymerases have been performed using adenosine ribonucleotide triphosphate analogues of the present invention as a substrate (in place of natural ATP). Both unincorporated and incorporated fluorescent purine ribonucleotide analogues could be visualised directly under UV trans-illumination in either agarose or polyacrylamide gels without ethidium bromide staining. The RNA products generated in the transcription assay were characterised by 6% or 20% polyacrylamide gel electrophoresis (PAGE) under denaturing (7 M urea) conditions. […] The expected full-length (˜500 bases) RNA products were not observed by denaturing 6% PAGE. Short RNA products were separated by denaturing 20% PAGE. […] The analogues are also incorporated at a slower rate than the natural substrates. Incorporation of the first and second adenosine (underlined adenosine residues in the Table below) into the RNA product occurs with two templates tested, but adjacent adenosine analogues terminate transcription before the third adenosine in each template is incorporated. Two adjacent adenosine analogues may be too large for the active site, thus RNA synthesis is terminated and the product released.
RNA products formed using the HCV 3′-UTR and T7 φ13 promoter DNA templates in gel-based transcription assays of T7 RNA polymerase and 8-phenylethynyl-adenosine triphosphate: […]

HCV RNA polymerase = target: T1, HCV RNA polymerase (Hepatitis C virus genotype 1a, UniProt P27958); experiment: In vitro RNA polymerase assay with the ATP analogue as substrate; format: biochemical
T1 construct: results with HCV and T7 RNA polymerases using 8-phenylethynyl-adenosine triphosphate as a substrate
T1 sequence (P27958 2421-3011): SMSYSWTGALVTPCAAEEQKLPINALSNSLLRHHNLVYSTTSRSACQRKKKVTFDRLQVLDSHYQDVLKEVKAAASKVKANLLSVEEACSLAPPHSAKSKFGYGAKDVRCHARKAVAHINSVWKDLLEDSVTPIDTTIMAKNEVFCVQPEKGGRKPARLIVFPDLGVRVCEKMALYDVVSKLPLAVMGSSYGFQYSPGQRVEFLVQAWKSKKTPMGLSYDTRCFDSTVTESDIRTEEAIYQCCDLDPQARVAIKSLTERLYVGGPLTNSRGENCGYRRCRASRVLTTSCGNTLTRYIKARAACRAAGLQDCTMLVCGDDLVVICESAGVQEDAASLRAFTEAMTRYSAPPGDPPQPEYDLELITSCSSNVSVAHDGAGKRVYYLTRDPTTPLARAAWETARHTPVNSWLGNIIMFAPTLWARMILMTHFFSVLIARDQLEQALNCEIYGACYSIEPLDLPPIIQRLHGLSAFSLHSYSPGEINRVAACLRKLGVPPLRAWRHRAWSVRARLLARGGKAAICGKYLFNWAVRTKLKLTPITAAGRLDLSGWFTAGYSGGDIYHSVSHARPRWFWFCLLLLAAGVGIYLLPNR
Source text: as §1

[3] = Mg^2+ as co-factor, depending on DNA template

COc1ccc(C#Cc2nc3c(=O)[nH]c(N)nc3n2[C@@H]2O[C@H](CO)[C@@H](O)[C@H]2O)cc1 [Compound 5c, 8-(4-Methoxyphenylethynyl)guanosine]
Molar absorption coefficient [1]: 22569 M⁻¹ cm⁻¹
Wavelength at fluorescence emission maximum [1]: 398 nm
Wavelength at maximum in UV absorption [1]: 330 nm
Quantum yield [1]: 1.2%
UV-visible spectrum shift relative to compound 5a (parent) [2]: red-shifted
Stokes shift [2]: 2749 cm⁻¹
λem [2]: 402 nm
λex [2]: 362 nm
HOMO-LUMO gap relative to compound 5a ([2]; inferred from UV-visible spectrum): smaller HOMO-LUMO gap
melting point: 220 to 224 °C (dec.)

Nc1ncnc2c1nc(C#Cc1ccccc1)n2[C@@H]1O[C@H](COP(=O)(O)OP(=O)(O)OP(=O)(O)O)[C@@H](O)[C@H]1O [8-phenylethynyl-adenosine triphosphate]
Length of RNA products observed (T7 RNA polymerase; HCV 3′-UTR DNA template): 6 mer, 9 mer
RNA transcripts yielded with analogue as substrate (T7 RNA polymerase; [3]): short RNA transcripts
Length of RNA products observed (T7 RNA polymerase; T7 φ13 promoter DNA template): 4 mer, 6 mer
Expected full-length (˜500 bases) RNA products (T7 RNA polymerase; denaturing 6% PAGE): not observed
Length of small RNA products into which the analogue is incorporated (T7 RNA polymerase; denaturing 20% PAGE): 4-9 bases
RNA transcripts yielded with analogue as substrate (HCV RNA polymerase; [3]): short RNA transcripts
Expected full-length (˜500 bases) RNA products (HCV RNA polymerase; denaturing 6% PAGE): not observed

Nc1nc2c(nc(C#Cc3ccccc3)n2[C@@H]2O[C@H](CO)[C@@H](O)[C@H]2O)c(=O)[nH]1 [Compound 5a, 8-(Phenylethynyl)guanosine]
Wavelength at fluorescence emission maximum [1]: 416 nm
Wavelength at maximum in UV absorption [1]: 330 nm
Quantum yield [1]: 2.7%
Stokes shift [2]: 4196 cm⁻¹
λem [2]: 438 nm
λex [2]: 370 nm
melting point: 234 to 236 °C (dec.)

COc1ccc(C#Cc2nc3c(N)ncnc3n2[C@@H]2O[C@H](CO)[C@@H](O)[C@H]2O)cc1 [Compound 6c, 8-(4-methoxyphenylethynyl)-adenosine]
Molar absorption coefficient [1]: 18176 M⁻¹ cm⁻¹
Wavelength at fluorescence emission maximum [1]: 380 nm
Wavelength at maximum in UV absorption [1]: 326 nm
Quantum yield [1]: 24%
Stokes shift [2]: 1933 cm⁻¹
Absorption maxima shift relative to compound 7a (parent) ([2]; compared with the guanosine series): more significant differences
λem [2]: 380 nm
λex [2]: 354 nm
melting point: 198 to 202 °C (dec.)
